Test results from ChEMBL document CHEMBL1201862, “PubChem BioAssay data set” (2004).
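Compound exposure: 48 hours, 5 concentrations, 96-well plates. GI50 marks 50% less growth.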 Active and inactive are the calls of the source. No stated cut-off is given here; in the data, active = GI50 up to about 1.1 µM and inactive = higher.

Legend:
Test in all cases: growth of human tumour cells (NCI), 48 h
HOP-62 = tested on: HOP-62
SNB-75 = tested on: SNB-75
A498 = tested on: A498
EKVX = tested on: EKVX
HCC 2998 = tested on: HCC 2998
HL-60 = tested on: HL-60
MDA-N = tested on: MDA-N
M14 = tested on: M14
RPMI-8226 = tested on: RPMI-8226
ACHN = tested on: ACHN
SK-OV-3 = tested on: SK-OV-3
TK-10 = tested on: TK-10
SR = tested on: SR
PC-3 = tested on: PC-3
CAKI-1 = tested on: CAKI-1
OVCAR-8 = tested on: OVCAR-8
HT-29 = tested on: HT-29
HOP-92 = tested on: HOP-92
COLO 205 = tested on: COLO 205
OVCAR-4 = tested on: OVCAR-4
SK-MEL-28 = tested on: SK-MEL-28
786-0 = tested on: 786-0
SNB-19 = tested on: SNB-19
BT-549 = tested on: BT-549
SF-539 = tested on: SF-539
Hs-578T = tested on: Hs-578T
HCT-116 = tested on: HCT-116
CCRF-CEM = tested on: CCRF-CEM
SN12C = tested on: SN12C
LOX IMVI = tested on: LOX IMVI
KM12 = tested on: KM12
NCI-H226 = tested on: NCI-H226
UACC-257 = tested on: UACC-257
DU-145 = tested on: DU-145
OVCAR-5 = tested on: OVCAR-5
NCI-H522 = tested on: NCI-H522
MDA-MB-435 = tested on: MDA-MB-435
MCF7 = tested on: MCF7
SF-295 = tested on: SF-295
SF-268 = tested on: SF-268
K562 = tested on: K562
NCI-H460 = tested on: NCI-H460
U-251 = tested on: U-251
SK-MEL-5 = tested on: SK-MEL-5
OVCAR-3 = tested on: OVCAR-3
SK-MEL-2 = tested on: SK-MEL-2
MDA-MB-231 = tested on: MDA-MB-231
NCI/ADR-RES = tested on: NCI/ADR-RES
A549 = tested on: A549
UACC-62 = tested on: UACC-62
Malme-3M = tested on: Malme-3M
SW-620 = tested on: SW-620
RXF 393 = tested on: RXF 393
MOLT-4 = tested on: MOLT-4
T47D = tested on: T47D
HCT-15 = tested on: HCT-15
IGROV-1 = tested on: IGROV-1
UO-31 = tested on: UO-31
NCI-H23 = tested on: NCI-H23

O=P12N(CCN1c1ccccc1)CCN2c1ccccc1
GI50 (HOP-62): > 100 µM (inactive)
GI50 (SNB-75): 63.7 µM (inactive)
GI50 (A498): > 100 µM (inactive)
GI50 (EKVX): > 100 µM (inactive)
GI50 (HCC 2998): > 100 µM (inactive)
GI50 (HL-60): > 100 µM (inactive)
GI50 (MDA-N): > 100 µM (inactive)
GI50 (M14): 66.8 µM (inactive)
GI50 (RPMI-8226): > 100 µM (inactive)
GI50 (ACHN): > 100 µM (inactive)
GI50 (SK-OV-3): > 100 µM (inactive)
GI50 (TK-10): > 100 µM (inactive)
GI50 (SR): > 100 µM (inactive)
GI50 (PC-3): > 100 µM (inactive)
GI50 (CAKI-1): > 100 µM (inactive)
GI50 (OVCAR-8): > 100 µM (inactive)
GI50 (HT-29): > 100 µM (inactive)
GI50 (HOP-92): 80.7 µM (inactive)
GI50 (COLO 205): > 100 µM (inactive)
GI50 (OVCAR-4): > 100 µM (inactive)
GI50 (SK-MEL-28): > 100 µM (inactive)
GI50 (786-0): > 100 µM (inactive)
GI50 (SNB-19): > 100 µM (inactive)
GI50 (BT-549): > 100 µM (inactive)
GI50 (SF-539): > 100 µM (inactive)
GI50 (Hs-578T): > 100 µM (inactive)
GI50 (HCT-116): > 100 µM (inactive)
GI50 (CCRF-CEM): > 100 µM (inactive)
GI50 (SN12C): > 100 µM (inactive)
GI50 (LOX IMVI): > 100 µM (inactive)
GI50 (KM12): > 100 µM (inactive)
GI50 (NCI-H226): > 100 µM (inactive)
GI50 (UACC-257): > 100 µM (inactive)
GI50 (DU-145): > 100 µM (inactive)
GI50 (OVCAR-5): > 100 µM (inactive)
GI50 (NCI-H522): 84.1 µM (inactive)
GI50 (MDA-MB-435): > 100 µM (inactive)
GI50 (MCF7): > 100 µM (inactive)
GI50 (SF-295): > 100 µM (inactive)
GI50 (SF-268): > 100 µM (inactive)
GI50 (K562): > 100 µM (inactive)
GI50 (NCI-H460): > 100 µM (inactive)
GI50 (U-251): > 100 µM (inactive)
GI50 (SK-MEL-5): > 100 µM (inactive)
GI50 (OVCAR-3): > 100 µM (inactive)
GI50 (SK-MEL-2): > 100 µM (inactive)
GI50 (MDA-MB-231): > 100 µM (inactive)
GI50 (NCI/ADR-RES): > 100 µM (inactive)
GI50 (A549): > 100 µM (inactive)
GI50 (UACC-62): > 100 µM (inactive)
GI50 (Malme-3M): > 100 µM (inactive)
GI50 (SW-620): > 100 µM (inactive)
GI50 (RXF 393): > 100 µM (inactive)
GI50 (MOLT-4): > 100 µM (inactive)
GI50 (T47D): > 100 µM (inactive)
GI50 (HCT-15): > 100 µM
GI50 (IGROV-1): > 100 µM (inactive)
GI50 (UO-31): > 100 µM (inactive)
GI50 (NCI-H23): > 100 µM (inactive)

CC1=NN(c2nc(N)nc(/C(C#N)=C\c3ccc(-c4ccc([N+](=O)[O-])cc4)o3)n2)C(C)(C)C1
GI50 (HOP-62): 1.78 µM (inactive)
GI50 (SNB-75): 14.2 µM (inactive)
GI50 (A498): > 100 µM (inactive)
GI50 (EKVX): > 100 µM (inactive)
GI50 (HCC 2998): > 100 µM (inactive)
GI50 (HL-60): 17.1 µM (inactive)
GI50 (MDA-N): > 100 µM (inactive)
GI50 (M14): > 100 µM (inactive)
GI50 (RPMI-8226): > 100 µM (inactive)
GI50 (ACHN): > 100 µM (inactive)
GI50 (SK-OV-3): > 100 µM (inactive)
GI50 (TK-10): > 100 µM (inactive)
GI50 (SR): 11.1 µM (inactive)
GI50 (PC-3): > 100 µM (inactive)
GI50 (CAKI-1): > 100 µM (inactive)
GI50 (OVCAR-8): > 100 µM (inactive)
GI50 (HT-29): > 100 µM (inactive)
GI50 (HOP-92): > 100 µM (inactive)
GI50 (COLO 205): > 100 µM (inactive)
GI50 (OVCAR-4): > 100 µM (inactive)
GI50 (SK-MEL-28): > 100 µM (inactive)
GI50 (786-0): > 100 µM (inactive)
GI50 (SNB-19): > 100 µM (inactive)
GI50 (BT-549): > 100 µM (inactive)
GI50 (SF-539): > 100 µM (inactive)
GI50 (Hs-578T): 62.2 µM (inactive)
GI50 (HCT-116): > 100 µM (inactive)
GI50 (CCRF-CEM): 0.807 µM (active)
GI50 (SN12C): > 100 µM (inactive)
GI50 (LOX IMVI): > 100 µM (inactive)
GI50 (KM12): > 100 µM (inactive)
GI50 (NCI-H226): > 100 µM (inactive)
GI50 (UACC-257): > 100 µM (inactive)
GI50 (DU-145): > 100 µM (inactive)
GI50 (OVCAR-5): > 100 µM (inactive)
GI50 (NCI-H522): > 100 µM (inactive)
GI50 (MDA-MB-435): > 100 µM (inactive)
GI50 (MCF7): > 100 µM (inactive)
GI50 (SF-295): > 100 µM (inactive)
GI50 (SF-268): 65.5 µM (inactive)
GI50 (K562): > 100 µM (inactive)
GI50 (NCI-H460): > 100 µM (inactive)
GI50 (U-251): 39.5 µM (inactive)
GI50 (SK-MEL-5): > 100 µM (inactive)
GI50 (OVCAR-3): > 100 µM (inactive)
GI50 (SK-MEL-2): > 100 µM (inactive)
GI50 (MDA-MB-231): 27.5 µM (inactive)
GI50 (NCI/ADR-RES): > 100 µM (inactive)
GI50 (A549): > 100 µM (inactive)
GI50 (UACC-62): > 100 µM (inactive)
GI50 (Malme-3M): > 100 µM (inactive)
GI50 (SW-620): > 100 µM (inactive)
GI50 (RXF 393): > 100 µM (inactive)
GI50 (MOLT-4): > 100 µM (inactive)
GI50 (T47D): > 100 µM (inactive)
GI50 (HCT-15): > 100 µM
GI50 (IGROV-1): > 100 µM (inactive)
GI50 (UO-31): > 100 µM (inactive)
GI50 (NCI-H23): > 100 µM (inactive)
